Reference: ChEMBL document CHEMBL1124853, “Synthesis and antiallergy activity of N-[2-(dimethylamino)ethyl]-4-aryl-1-piperazinecarboxamide derivatives” (1990)

How the values were obtained:
Rattus norvegicus [1] = experiment: Oral antiallergic activity in rat passive foot anaphylaxis (PFA) assay as percent change in volume of foot edema at a dose 31.6 mg/kg compared to -63% of aminophylline at 100 mg/kg; type: functional
Rattus norvegicus [2] = experiment: Oral antiallergic activity in rat passive foot anaphylaxis (PFA) assay as percent change in volume of foot edema at a dose 31.6 mg/kg compared to -73% of aminophylline at 100 mg/kg; type: functional
Rattus norvegicus [3] = experiment: Oral antiallergic activity in rat passive foot anaphylaxis (PFA) assay as percent change in volume of foot edema at a dose 31.6 mg/kg compared to -74% of aminophylline at 100 mg/kg; type: functional
Rattus norvegicus [4] = experiment: Oral antiallergic activity in rat passive foot anaphylaxis (PFA) assay as percent change in volume of foot edema at a dose 31.6 mg/kg compared to -68% of aminophylline at 100 mg/kg; type: functional
Rattus norvegicus [5] = experiment: Oral antiallergic activity in rat passive foot anaphylaxis (PFA) assay as percent change in volume of foot edema at a dose 31.6 mg/kg compared to -80% of aminophylline at 100 mg/kg; type: functional
Rattus norvegicus [6] = experiment: Oral antiallergic activity in rat passive foot anaphylaxis (PFA) assay as percent change in volume of foot edema at a dose 31.6 mg/kg compared to -65% of aminophylline at 100 mg/kg; type: functional
Cavia porcellus [7] = experiment: Oral antiallergic activity in the Guinea Pig Anaphylaxis (GPA) at the dose of 200 mg/kg; 3 guinea pigs were challenged with the antigen; type: functional
Rattus norvegicus [8] = experiment: Oral antiallergic activity in rat passive foot anaphylaxis (PFA) assay as percent change in volume of foot edema at a dose 31.6 mg/kg compared to -66% of aminophylline at 100 mg/kg; type: functional
Rattus norvegicus [9] = experiment: Oral antiallergic activity in rat passive foot anaphylaxis (PFA) assay as percent change in volume of foot edema at a dose 31.6 mg/kg compared to -67% of aminophylline at 100 mg/kg; type: functional
Rattus norvegicus [10] = experiment: Oral antiallergic activity in rat passive foot anaphylaxis (PFA) assay as percent change in volume of foot edema at a dose 10 mg/kg compared to -76% of aminophylline at 100 mg/kg; type: functional
Cavia porcellus [11] = experiment: Oral antiallergic activity in the Guinea Pig Anaphylaxis (GPA) at the dose of 10 mg/kg; 4 guinea pigs were challenged with the antigen
Rattus norvegicus [12] = experiment: Oral antiallergic activity in rat passive foot anaphylaxis (PFA) assay as percent change in volume of foot edema at a dose 3.16 mg/kg compared to -84% of aminophylline at 100 mg/kg
Cavia porcellus [13] = experiment: Oral antiallergic activity in the Guinea Pig Anaphylaxis (GPA) at the dose of 31.6 mg/kg; 6 guinea pigs were challenged with the antigen; type: functional
Rattus norvegicus [14] = experiment: Oral antiallergic activity in rat passive foot anaphylaxis (PFA) assay as percent change in volume of foot edema at a dose 31.6 mg/kg compared to -50% of aminophylline at 100 mg/kg; type: functional
Rattus norvegicus [15] = experiment: Oral antiallergic activity in rat passive foot anaphylaxis (PFA) assay as percent change in volume of foot edema at a dose 31.6 mg/kg compared to -77% of aminophylline at 100 mg/kg; type: functional
Rattus norvegicus [16] = experiment: Oral antiallergic activity in rat passive foot anaphylaxis (PFA) assay as percent change in volume of foot edema at a dose 31.6 mg/kg compared to -58% of aminophylline at 100 mg/kg; type: functional
Rattus norvegicus [17] = experiment: Oral antiallergic activity in rat passive foot anaphylaxis (PFA) assay as percent change in volume of foot edema at a dose 31.6 mg/kg compared to -79% of aminophylline at 100 mg/kg; type: functional
Rattus norvegicus [18] = experiment: Oral antiallergic activity in rat passive foot anaphylaxis (PFA) assay as percent change in volume of foot edema at a dose 10 mg/kg compared to -69% of aminophylline at 100 mg/kg; type: functional
Rattus norvegicus [19] = experiment: Oral antiallergic activity in rat passive foot anaphylaxis (PFA) assay as percent change in volume of foot edema at a dose 31.6 mg/kg compared to -61% of aminophylline at 100 mg/kg; type: functional
Rattus norvegicus [20] = experiment: Oral antiallergic activity in rat passive foot anaphylaxis (PFA) assay as percent change in volume of foot edema at a dose 31.6 mg/kg compared to -60% of aminophylline at 100 mg/kg; type: functional
Rattus norvegicus [21] = experiment: Oral antiallergic activity in rat passive foot anaphylaxis (PFA) assay as percent change in volume of foot edema at a dose 10 mg/kg compared to -77% of aminophylline at 100 mg/kg; type: functional
Rattus norvegicus [22] = experiment: Oral antiallergic activity in rat passive foot anaphylaxis (PFA) assay as percent change in volume of foot edema at a dose 31.6 mg/kg compared to -71% of aminophylline at 100 mg/kg; type: functional
Rattus norvegicus [23] = experiment: Oral antiallergic activity in rat passive foot anaphylaxis (PFA) assay as percent change in volume of foot edema at a dose 31.6 mg/kg compared to -62% of aminophylline at 100 mg/kg; type: functional
Rattus norvegicus [24] = experiment: Oral antiallergic activity in rat passive foot anaphylaxis (PFA) assay as percent change in volume of foot edema at a dose 10 mg/kg compared to -62% of aminophylline at 100 mg/kg; type: functional
Cavia porcellus [25] = experiment: Oral antiallergic activity in the Guinea Pig Anaphylaxis (GPA) at the dose of 31.6 mg/kg; 4 guinea pigs were challenged with the antigen
Rattus norvegicus [26] = experiment: Oral antiallergic activity in rat passive foot anaphylaxis (PFA) assay as percent change in volume of foot edema at a dose 31.6 mg/kg compared to -69% of aminophylline at 100 mg/kg; type: functional
Rattus norvegicus [27] = experiment: Oral antiallergic activity in rat passive foot anaphylaxis (PFA) assay as percent change in volume of foot edema at a dose 31.6 mg/kg compared to -81% of aminophylline at 100 mg/kg; type: functional
Rattus norvegicus [28] = experiment: Oral antiallergic activity in rat passive foot anaphylaxis (PFA) assay as percent change in volume of foot edema at a dose 31.6 mg/kg compared to -76% of aminophylline at 100 mg/kg; type: functional
Rattus norvegicus [29] = experiment: Oral antiallergic activity in rat passive foot anaphylaxis (PFA) assay as percent change in volume of foot edema at a dose 31.6 mg/kg compared to -78% of aminophylline at 100 mg/kg; type: functional
Rattus norvegicus [30] = experiment: Oral antiallergic activity in rat passive foot anaphylaxis (PFA) assay as percent change in volume of foot edema at a dose 31.6 mg/kg compared to -64% of aminophylline at 100 mg/kg; type: functional
Rattus norvegicus [31] = experiment: Oral antiallergic activity in rat passive foot anaphylaxis (PFA) assay as percent change in volume of foot edema at a dose 31.6 mg/kg compared to -90% of aminophylline at 100 mg/kg; type: functional

Structure (SMILES): COc1ccc(N2CCN(C(=O)NCCN(C)C)CC2)cc1OC
- Change (Rattus norvegicus [1]): -16%

Structure (SMILES): CN(C)CCNC(=O)N1CCN(Cc2ccccc2)CC1
- Change (Rattus norvegicus [2]): -10%

Structure (SMILES): CN(C)CCCNC(=O)N1CCN(c2ccccc2)CC1
- Change (Rattus norvegicus [3]): -13%

Structure (SMILES): CN(C)CCNC(=O)N1CCN(c2ccccc2F)CC1
- Change (Rattus norvegicus [4]): -37%

Structure (SMILES): CN(C)CCNC(=O)N1CCN(c2ccc(C(N)=O)cc2)CC1
- Change (Rattus norvegicus [5]): 0%

Structure (SMILES): Cc1ccc(N2CCN(C(=O)NCCN(C)C)CC2)cc1
- Change (Rattus norvegicus [6]): -46%

Structure (SMILES): CCN(CC)C(=O)N1CCN(C)CC1 [DIETHYLCARBAMAZINE]
- No. of guinea pigs protected (Cavia porcellus [7]): 0

Structure (SMILES): CC(=O)Nc1ccc(N2CCN(C(=O)NCCN(C)C)CC2)cc1
- Change (Rattus norvegicus [3]): 5%

Structure (SMILES): CN(C)CCNC(=O)N1CCN(C(c2ccccc2)c2ccccc2)CC1
- Change (Rattus norvegicus [8]): -30%

Structure (SMILES): CN(CCNC(=O)N1CCN(c2ccccc2)CC1)c1ccccc1
- Change (Rattus norvegicus [1]): -41%

Structure (SMILES): CN(C)CCNC(=O)N1CCN(c2ccc(F)cc2)CC1
- Change (Rattus norvegicus [9]): -87%
- Change (Rattus norvegicus [10]): -63%
- No. of guinea pigs protected (Cavia porcellus [11]): 1
- Change (Rattus norvegicus [12]): -35%

Structure (SMILES): Cn1c(=O)c2[nH]cnc2n(C)c1=O.Cn1c(=O)c2[nH]cnc2n(C)c1=O.NCCN [AMINOPHYLLINE]
- No. of guinea pigs protected (Cavia porcellus [13]): 4

Structure (SMILES): CN(C)CCNC(=O)N1CCN(c2ccc(Cl)c(Cl)c2)CC1
- Change (Rattus norvegicus [14]): -17%

Structure (SMILES): CN(C)CCNC(=O)N1CCN(c2ccc(N(C)C)cc2)CC1
- Change (Rattus norvegicus [15]): -29%

Structure (SMILES): CN(C)CCNC(=O)N1CCN(c2ccc([N+](=O)[O-])cc2)CC1
- Change (Rattus norvegicus [16]): -26%

Structure (SMILES): O=C(NCCN1CCOCC1)N1CCN(c2ccccc2)CC1
- Change (Rattus norvegicus [3]): 10%

Structure (SMILES): CN(C)CCNC(=O)N(C)CCN(C)c1ccccc1
- Change (Rattus norvegicus [17]): -23%

Structure (SMILES): CN(C)CCNC(=O)N1CCN(c2ccc(N)cc2)CC1
- Change (Rattus norvegicus [2]): -22%

Structure (SMILES): COc1ccc(N2CCN(C(=O)NCCN(C)C)CC2)cc1
- Change (Rattus norvegicus [6]): -49%
- Change (Rattus norvegicus [18]): -29%

Structure (SMILES): CN(C)CCNC(=O)N1CCN(c2ccc(Br)cc2)CC1
- Change (Rattus norvegicus [19]): -31%

Structure (SMILES): CCN(CC)CCNC(=O)N1CCN(c2ccccc2)CC1
- Change (Rattus norvegicus [20]): -47%

Structure (SMILES): CN(C)CCNC(=O)N1CCN(c2cccc(Cl)c2)CC1
- Change (Rattus norvegicus [9]): -78%
- Change (Rattus norvegicus [21]): -32%

Structure (SMILES): CN(C)CCNC(=O)N1CCN(C(=O)c2ccccc2)CC1
- Change (Rattus norvegicus [22]): -4%

Structure (SMILES): CN(C)CCNC(=O)N1CCN(c2ccccc2Cl)CC1
- Change (Rattus norvegicus [6]): -53%
- Change (Rattus norvegicus [18]): -16%

Structure (SMILES): CN(C)CCNC(=O)N1CCN(c2ccc(Cl)cc2)CC1
- Change (Rattus norvegicus [23]): 27%
- Change (Rattus norvegicus [6]): -61%
- Change (Rattus norvegicus [24]): -48%
- No. of guinea pigs protected (Cavia porcellus [25]): 0

Structure (SMILES): O=C(NCCN1CCCCC1)N1CCN(c2ccccc2)CC1
- Change (Rattus norvegicus [4]): -49%

Structure (SMILES): O=C(NCCCN1CCOCC1)N1CCN(c2ccccc2)CC1
- Change (Rattus norvegicus [26]): -28%

Structure (SMILES): CN1CCN(CCNC(=O)N2CCN(c3ccccc3)CC2)CC1
- Change (Rattus norvegicus [1]): -7%

Structure (SMILES): CCN1CCCC(NC(=O)N2CCN(c3ccccc3)CC2)C1 (configuration not stated)
- Change (Rattus norvegicus [27]): -58%

Structure (SMILES): O=C(NCCN1CCCC1)N1CCN(c2ccccc2)CC1
- Change (Rattus norvegicus [4]): -45%

Structure (SMILES): CN1CCN(C(=O)N2CCN(c3ccccc3)CC2)CC1
- Change (Rattus norvegicus [4]): -7%

Structure (SMILES): CN(CCNC(=O)N1CCN(c2ccccc2)CC1)Cc1ccccc1
- Change (Rattus norvegicus [14]): -35%

Structure (SMILES): CN(C)CCN(C)C(=O)N1CCN(c2ccccc2)CC1
- Change (Rattus norvegicus [6]): -38%

Structure (SMILES): CN1CCN(CCCNC(=O)N2CCN(c3ccccc3)CC2)CC1
- Change (Rattus norvegicus [27]): -23%

Structure (SMILES): CN(C)CCNC(=O)N1CCN(c2ccc(C#N)cc2)CC1
- Change (Rattus norvegicus [5]): -31%

Structure (SMILES): CN(C)CCNC(=O)N1CCN(c2ccccn2)CC1
- Change (Rattus norvegicus [6]): -54%
- Change (Rattus norvegicus [18]): -13%

Structure (SMILES): CN(C)CCNC(=O)N1CCN(c2cccc(C(F)(F)F)c2)CC1
- Change (Rattus norvegicus [19]): -18%

Structure (SMILES): NC(=O)N1CCN(c2ccccc2)CC1
- Change (Rattus norvegicus [3]): 10%

Structure (SMILES): CN(C)C(=O)N1CCN(c2ccccc2)CC1
- Change (Rattus norvegicus [22]): -24%

Structure (SMILES): O=C(NCCN1CCCCCC1)N1CCN(c2ccccc2)CC1
- Change (Rattus norvegicus [28]): -47%

Structure (SMILES): COc1cc(N2CCN(C(=O)NCCN(C)C)CC2)cc(OC)c1OC
- Change (Rattus norvegicus [23]): 9%

Structure (SMILES): CCOC(=O)c1ccc(N2CCN(C(=O)NCCN(C)C)CC2)cc1
- Change (Rattus norvegicus [29]): -5%

Structure (SMILES): CN(C)CCNC(=O)N1CCN(c2cccc(F)c2)CC1
- Change (Rattus norvegicus [30]): -31%

Structure (SMILES): CN(C)CCNC(=O)N1CCN(c2ccccc2)CC1
- Change (Rattus norvegicus [31]): -68%
- Change (Rattus norvegicus [18]): -22%

Structure (SMILES): O=C(NCCc1ccccn1)N1CCN(c2ccccc2)CC1
- Change (Rattus norvegicus [3]): -3%

Structure (SMILES): CC(=O)c1ccc(N2CCN(C(=O)NCCN(C)C)CC2)cc1
- Change (Rattus norvegicus [22]): -25%

Structure (SMILES): CN(C)CCOC(c1ccccc1)c1ccccc1 [DIPHENHYDRAMINE]
- No. of guinea pigs protected (Cavia porcellus [25]): 1

Structure (SMILES): COc1ccccc1N1CCN(C(=O)NCCN(C)C)CC1
- Change (Rattus norvegicus [3]): -21%

Structure (SMILES): COc1cccc(N2CCN(C(=O)NCCN(C)C)CC2)c1
- Change (Rattus norvegicus [6]): -67%
- Change (Rattus norvegicus [24]): -36%

Structure (SMILES): O=C(N1CCN(c2ccccc2)CC1)N1CCN(c2ccccc2)CC1
- Change (Rattus norvegicus [26]): -10%
